# System: P. falciparum Dd2
# Experiment: Activity against the Dd2 strain of P. falciparum (SYBR Green I, 72 h)
# Assay type: cell-based
# Conditions: P. falciparum Dd2, 72 h incubation
# Protocol: The Dd2 strain of P. falciparum was cultured in complete medium (RPMI with L-glutamine, 4.3% heat-inactivated O-positive human serum, 2.08 mg/ml albumax, 0.013 mg/ml hypoxanthine, 1.17 mg/ml glucose, 0.18% NaHCO3, 0.031 M Hepes, 2.60 mM NaOH, and 0.043 mg/ml gentamicin) until the parasitemia reached 3-8%. Parasitemia was determined by checking at least 500 red blood cells from a Giemsa-stained blood smear. The Dd2 cultures along with tested O-positive red blood cells were centrifuged at room temperature at 2,000 rpm for 5 minutes using an Eppendorf centrifuge 5810R with an A-4-81 rotor. The medium was aspirated off. For the compound screening, a parasite dilution at a 1% parasitemia and 1.0% hematocrit was created with screening medium (RPMI with L-glutamine, 4.16 mg/ml albumax II, 0.013 mg/ml hypoxanthine, 1.73 mg/ml glucose, 0.18% NaHCO3, 0.031 M Hepes, 2.60 mM NaOH, and 0.043 mg/ml gentamicin). The suspension was gassed with 93% nitrogen, 4% carbon dioxide, and 3% oxygen and placed at 37° C. until needed. Using a liquid dispenser, 20 μl of screening medium was dispensed into 384-well, black, clear-bottom plates. With a PinTool, 100 nl of compounds dissolved in DMSO was transferred into the assay plates along with control compound (mefloquine). Next, 30 μl of the parasite suspension in screening medium was then dispensed into the assay plates such that the final parasitemia was 1% and the final hematocrit was 1.0%. Final concentration of DMSO was 0.125%. Mefloquine at a final concentration of 20 μM and DMSO at a final concentration of 0.125% were used within the assay plates to serve as background and baseline controls, respectively. The assay plates were transferred to incubators (93% nitrogen, 4% carbon dioxide, and 3% oxygen during the 72 h incubation at 37° C.). Ten microliters of detection reagent consisting of 10×SYBR Green I (Invitrogen; supplied in 10,000× concentration) in lysis buffer (20 mM Tris-HCl, 5 mM EDTA, 0.16% Saponin wt/vol, 1.6% Triton X vol/vol) was dispensed into the assay plates. For optimal staining, the assay plates were left at room temperature for 24 h in the dark. The assay plates were read by using an Envision (PerkinElmer) reader, with 505 dichroic mirrors with 485-nm excitation and 530-nm emission settings, and the plate reads were from the bottom.
# By following the above-described protocol, the 50% effective concentration (EC50) for compounds 1-95 was measured against P. falciparum Dd2 and the results are shown in Table 2: […]
row,SMILES,EC50
1,"O=C(Nc1ccc(F)cc1)N1CCCCN2[C@H](CO)[C@H](c3ccc(C#Cc4ccccc4)cc3)[C@@H]2C1 [Compound 54, (8R,9R,10S)-N-(4-fluorophenyl)-10-(hydroxymethyl)-9-[4-(2-phenylethynyl)phenyl]-1,6-diazabicyclo[6.2.0] decane-6-carboxamide]",156 nM

# Same assay, conditions: Plasmodium falciparum, DD2, 72 h, P. falciparum Dd2, 72 h incubation
row,SMILES,EC50
1,"COc1ccc(NC(=O)N2CCCCN3[C@@H](CO)[C@H](c4ccc(C#Cc5ccccc5)cc4)[C@@H]3C2)cc1 [Compound 52, (8R,9R,10R)-10-(hydroxymethyl)-N-(4-methoxyphenyl)-9-[4-(2-phenylethynyl)phenyl]-1,6-diazabicyclo[6.2.0] decane-6-carboxamide]",17 nM
2,"COc1ccc(NC(=O)N2CCCCN3[C@H](C(=O)O)[C@H](c4ccc(C#Cc5ccccc5)cc4)[C@@H]3C2)cc1 [Compound 53, (8R,9R,10S)-6-[(4-methoxyphenyl)carbamoyl]-9-[4-(2-phenylethynyl)phenyl]-1,6-diazabicyclo[6.2.0] decane-10-carboxylic acid]",2770 nM
3,"COc1ccc(NC(=O)N2CCCCN3[C@H](CN4CCOCC4)[C@H](c4ccc(C#Cc5ccccc5)cc4)[C@@H]3C2)cc1 [Compound 55, (8R,9S,10S)-N-(4-methoxyphenyl)-10-(morpholin-4-ylmethyl)-9-[4-(2-phenylethynyl)phenyl]-1,6-diazabicyclo[6.2.0] decane-6-carboxamide]",5 nM
4,COc1cccc(NC(=O)N2CCCCN3[C@H](CO)[C@H](c4ccc(C#Cc5ccccc5)cc4)[C@@H]3C2)c1 [Compound 56],80 nM
5,"COc1ccc(NC(=O)N2CCCCN3[C@H](CN)[C@H](c4ccc(C#Cc5ccccn5)cc4)[C@@H]3C2)cc1 [Compound 57, (8R,9S,10S)-10-(aminomethyl)-N-(4-methoxyphenyl)-9-{4-[2-(pyridin-2-yl)ethynyl]phenyl}-1,6-diazabicyclo[6.2.0] decane-6-carboxamide]",98 nM
6,"COc1ccc(NC(=O)N2CCCCN3[C@H](CNC(C)=O)[C@H](c4ccc(C#Cc5ccccc5)cc4)[C@@H]3C2)cc1 [Compound 58, (8R,9S,10S)-10-(acetamidomethyl)-N-(4-methoxyphenyl)-9-[4-(2-phenylethynyl)phenyl]-1,6-diazabicyclo[6.2.0] decane-6-carboxamide]",6 nM
7,"O=C(Nc1cccnc1)N1CCCCN2[C@H](CO)[C@H](c3ccc(C#Cc4ccccc4)cc3)[C@@H]2C1 [Compound 59, (8R,9R,10S)-10-(hydroxymethyl)-9-[4-(2-phenylethynyl)phenyl]-N-(pyridin-3-yl)-1,6-diazabicyclo[6.2.0] decane-6-carboxamide]",2700 nM
8,"COc1ccc(NC(=O)N2CCCCN3[C@H](CO)[C@H](c4ccc(C#Cc5cccnc5)cc4)[C@@H]3C2)cc1 [Compound 60, (8R,9R,10S)-10-(hydroxymethyl)-N-(4-methoxyphenyl)-9-{4-[2-(pyridin-3-yl)ethynyl]phenyl}-1,6-diazabicyclo[6.2.0] decane-6-carboxamide]",61 nM
9,"CNC[C@@H]1[C@H](c2ccc(C#Cc3ccccc3)cc2)[C@@H]2CN(C(=O)Nc3ccc(OC)cc3)CCCCN12 [Compound 61, (8R,9S,10S)-N-(4-methoxyphenyl)-10-[(methylamino)methyl]-9-[4-(2-phenylethynyl)phenyl]-1,6-diazabicyclo[6.2.0] decane-6-carboxamide]",47 nM
10,"COc1ccc(N(C)C(=O)N2CCCCN3[C@H](CO)[C@H](c4ccc(C#Cc5ccccc5)cc4)[C@@H]3C2)cc1 [Compound 62, (8R,9R,10S)-10-(hydroxymethyl)-N-(4-methoxyphenyl)-N-methyl-9-[4-(2-phenylethynyl)phenyl]-1,6-diazabicyclo[6.2.0] decane-6-carboxamide]",4430 nM
11,"COc1ccc(CN2CCCCN3[C@H](CO)[C@H](c4ccc(C#Cc5ccccc5)cc4)[C@@H]3C2)cc1 [Compound 63, [(8R,9R,10S)-6-[(4-methoxyphenyl)methyl]-9-[4-(2-phenylethynyl)phenyl]-1,6-diazabicyclo[6.2.0]decan-10-yl]methanol]",1230 nM
12,"COc1ccc(NC(=O)N2CCCCN3[C@H](CO)[C@H](c4ccc(-c5cccnc5)cc4)[C@@H]3C2)cc1 [Compound 64, (8R,9R,10S)-10-(hydroxymethyl)-N-(4-methoxyphenyl)-9-[4-(pyridin-3-yl)phenyl]-1,6-diazabicyclo[6.2.0] decane-6-carboxamide]",1010 nM
13,"COc1ccc(NC(=O)N2CCCCN3[C@H](CNC(C)=O)[C@H](c4ccc(C#Cc5ccccn5)cc4)[C@@H]3C2)cc1 [Compound 65, (8R,9S,10S)-10-(acetamidomethyl)-N-(4-methoxyphenyl)-9-{4-[2-(pyridin-2-yl)ethynyl]phenyl}-1,6-diazabicyclo[6.2.0] decane-6-carboxamide]",110 nM
14,"COc1ccc(NC(=O)N2CCCCN3[C@H](CO)[C@H](c4ccc(-c5ccn(-c6ccccc6)c5)cc4)[C@@H]3C2)cc1 [Compound 66, (8R,9R,10S)-10-(hydroxymethyl)-N-(4-methoxyphenyl)-9-[4-(1-phenyl-1H-pyrrol-3-yl)phenyl]-1,6-diazabicyclo[6.2.0] decane-6-carboxamide]",1310 nM
15,"COc1ccc(NC(=O)N2CCCCN3[C@H](CO)[C@H](c4ccc(-c5cccc(F)c5)cc4)[C@@H]3C2)cc1 [Compound 67, (8R,9R,10S)-9-[4-(3-fluorophenyl)phenyl]-10-(hydroxymethyl)-N-(4-methoxyphenyl)-1,6-diazabicyclo[6.2.0] decane-6-carboxamide]",19500 nM
16,"COc1ccc(NC(=O)N2CCCCN3[C@H](CO)[C@H](c4ccc(-c5ccncc5)cc4)[C@@H]3C2)cc1 [Compound 69, (8R,9R,10S)-10-(hydroxymethyl)-N-(4-methoxyphenyl)-9-[4-(pyridin-4-yl)phenyl]-1,6-diazabicyclo[6.2.0] decane-6-carboxamide]",19500 nM
17,"COc1ccc(NC(=O)N2CCCCN3C[C@H](c4ccc(C#Cc5ccccc5)cc4)[C@@H]3C2)cc1 [Compound 70, (8R,9S)-N-(4-methoxyphenyl)-9-[4-(2-phenylethynyl)phenyl]-1,6-diazabicyclo[6.2.0] decane-6-carboxamide]",13 nM
18,"COc1ccc(NC(=O)N2CCCCN3[C@H](CO)[C@H](c4ccc(C#Cc5ccc(F)c(F)c5)cc4)[C@@H]3C2)cc1 [Compound 71, (8R,9R,10S)-9-{4-[2-(3,4-difluorophenyl)ethynyl]phenyl}-10-(hydroxymethyl)-N-(4-methoxyphenyl)-1,6-diazabicyclo[6.2.0] decane-6-carboxamide]",34 nM
19,"COc1ccc(NC(=O)N2CCCCN3[C@H](CO)[C@H](c4ccc(C#Cc5ccccc5F)cc4)[C@@H]3C2)cc1 [Compound 72, (8R,9R,10S)-9-{4-[2-(2-fluorophenyl)ethynyl]phenyl}-10-(hydroxymethyl)-N-(4-methoxyphenyl)-1,6-diazabicyclo[6.2.0] decane-6-carboxamide]",17 nM
20,"COc1ccc(NC(=O)N2CCCCN3[C@H](CN4CC(C)(O)C4)[C@H](c4ccc(C#Cc5ccccc5)cc4)[C@@H]3C2)cc1 [Compound 73, (8R,9S,10S)-10-[(3-hydroxy-3-methylazetidin-1-yl)methyl]-N-(4-methoxyphenyl)-9-[4-(2-phenylethynyl)phenyl]-1,6-diazabicyclo[6.2.0] decane-6-carboxamide]",104 nM
21,"COc1ccc(NC(=O)N2CCCCCN3[C@H](CO)[C@H](c4ccc(C#Cc5ccccc5)cc4)[C@@H]3C2)cc1 [Compound 74, (9R,10R,11S)-11-(hydroxymethyl)-N-(4-methoxyphenyl)-10-[4-(2-phenylethynyl)phenyl]-1,7-diazabicyclo[7.2.0] undecane-7-carboxamide]",87 nM
22,"COc1ccc(NC(=O)N2CCCCN3[C@H](CO)[C@H](c4ccc(C#Cc5ccc(F)cc5F)cc4)[C@@H]3C2)cc1 [Compound 75, (8R,9R,10S)-9-{4-[2-(2,4-difluorophenyl)ethynyl]phenyl}-10-(hydroxymethyl)-N-(4-methoxyphenyl)-1,6-diazabicyclo[6.2.0] decane-6-carboxamide]",71 nM
23,"COc1ccc(NC(=O)N2CCCCN3[C@H](CN(C)C(C)=O)[C@H](c4ccc(C#Cc5ccccc5)cc4)[C@@H]3C2)cc1 [Compound 76, (8R,9S,10S)-N-(4-methoxyphenyl)-10-[(N-methylacetamido)methyl]-9-[4-(2-phenylethynyl)phenyl]-1,6-diazabicyclo[6.2.0] decane-6-carboxamide]",8 nM

# — patent publication US11325913B2, “Compounds and methods for the treatment of malaria” (THE BROAD INSTITUTE, INC., priority 2013, dated 2022)
